The test system of this assay is B6C3F1 mice, B16 melanoma ip, median survival T/C. In words: NCI In Vivo Anticancer Drug Screen. Data for tumor model B16 Melanoma (intraperitoneal) in B6C3F1 mice. The following applies: endpoint: median survival time, higher = longer survival. On the procedure: The antitumor activity of compounds was measured in mice bearing transplantable tumors. Survival or tumor size were measured and the results are expressed as the measurement made in the treated group (T) divided by the measurement made in the vehicle treated control group (C). The tumor model used in this assay is B16 Melanoma (intraperitoneal) in B6C3F1 mice

Setting [1] is: dose: 3.13 mg/kg/injection, schedule: Q01DX009 (ip), vehicle: Klucel (hydroxypropylcellulose) (HPC).
[2] abbreviates: dose: 6.25 mg/kg/injection, schedule: Q01DX009 (ip), vehicle: Klucel (hydroxypropylcellulose) (HPC).
[3] abbreviates: dose: 12.5 mg/kg/injection, schedule: Q01DX009 (ip), vehicle: Klucel (hydroxypropylcellulose) (HPC).
[4] abbreviates: dose: 25.0 mg/kg/injection, schedule: Q01DX009 (ip), vehicle: Klucel (hydroxypropylcellulose) (HPC).
Where [5] appears, read: dose: 6.25 mg/kg/injection, schedule: Q01DX009 (ip), vehicle: saline with Tween-80.
Setting [6] is: dose: 12.5 mg/kg/injection, schedule: Q01DX009 (ip), vehicle: saline with Tween-80.
The mark [7] stands for this setting: dose: 12.5 mg/kg/injection, schedule: Q01DX009 (ip), vehicle: saline.
[8] abbreviates: dose: 25.0 mg/kg/injection, schedule: Q01DX009 (ip), vehicle: saline.
Setting [9] is: dose: 50.0 mg/kg/injection, schedule: Q01DX009 (ip), vehicle: saline.
Setting [10] is: dose: 100.0 mg/kg/injection, schedule: Q01DX009 (ip), vehicle: saline.
The mark [11] stands for this setting: dose: 200.0 mg/kg/injection, schedule: Q01DX009 (ip), vehicle: saline.
[12] abbreviates: dose: 1.5 mg/kg/injection, schedule: Q01DX009 (ip), vehicle: saline.
Setting [13] is: dose: 6.0 mg/kg/injection, schedule: Q01DX009 (ip), vehicle: saline.
Where [14] appears, read: dose: 12.0 mg/kg/injection, schedule: Q01DX009 (ip), vehicle: saline.
[15] abbreviates: dose: 25.0 mg/kg/injection, schedule: Q01DX009 (ip), vehicle: saline with Tween-80.
Setting [16] is: dose: 50.0 mg/kg/injection, schedule: Q01DX009 (ip), vehicle: saline with Tween-80.
Setting [17] is: dose: 100.0 mg/kg/injection, schedule: Q01DX009 (ip), vehicle: saline with Tween-80.
Setting [18] is: dose: 200.0 mg/kg/injection, schedule: Q01DX009 (ip), vehicle: saline with Tween-80.
[19] abbreviates: dose: 400.0 mg/kg/injection, schedule: Q01DX009 (ip), vehicle: saline with Tween-80.
Setting [20] is: dose: 100.0 mg/kg/injection, schedule: Q01DX009 (ip), vehicle: Klucel (hydroxypropylcellulose) (HPC).
Setting [21] is: dose: 200.0 mg/kg/injection, schedule: Q01DX009 (ip), vehicle: Klucel (hydroxypropylcellulose) (HPC).
[22] abbreviates: dose: 400.0 mg/kg/injection, schedule: Q01DX009 (ip), vehicle: Klucel (hydroxypropylcellulose) (HPC).

Values joined by “and” are separate entries in the source; they are usually repeats but may differ in a detail not shown here. Equal entries are not always repeated. Toxic doses and inconclusive results are not listed. Where a SMILES comes first, the peptide text is derived from it. The star is where a group is joined. Cbz = O=C(OCc1ccccc1)*

With `NC(CCl)=NCC12CC3CC(CC(C3)C1)C2`, the T/C (dose: 1.5 mg/kg/injection, schedule: Q01DX009 (ip), vehicle: Klucel (hydroxypropylcellulose) (HPC)) was 92 % of control; the T/C (dose: 3.0 mg/kg/injection, schedule: Q01DX009 (ip), vehicle: Klucel (hydroxypropylcellulose) (HPC)) is 104 % of control; the T/C under setting [1] was 92 % of control; the T/C (dose: 6.0 mg/kg/injection, schedule: Q01DX009 (ip), vehicle: Klucel (hydroxypropylcellulose) (HPC)) was 110 % of control and 101 % of control; the T/C under setting [2] was 101 % of control; the T/C (dose: 12.0 mg/kg/injection, schedule: Q01DX009 (ip), vehicle: Klucel (hydroxypropylcellulose) (HPC)) is 114 % of control and 104 % of control. Also, the T/C under setting [3] was 101 % of control and the T/C under setting [4] was 112 % of control.

With `Cc1cc2c(cc1C)C(=O)c1c(O)c3c(c(O)c1C2=O)C[C@@](O)(C(=O)CO)C[C@@H]3OC1CC(N)C(O)C(C)O1` (some centres not stated), the T/C is 193 % of control (dose: 2.5 mg/kg/injection, schedule: Q01DX001 (ip), vehicle: water); 162 % of control and 193 % of control (dose: 5.0 mg/kg/injection, schedule: Q01DX001 (ip), vehicle: water); 213 % of control and 236 % of control (dose: 10.0 mg/kg/injection, schedule: Q01DX001 (ip), vehicle: water); 155 % of control and 240 % of control (dose: 20.0 mg/kg/injection, schedule: Q01DX001 (ip), vehicle: water).

`O=C(O)CCCc1ccc(N(CCCl)CCCl)cc1`: the T/C by setting is: (dose: 1.56 mg/kg/injection, schedule: Q01DX009 (ip), vehicle: saline with Tween-80) 113 % of control and 106 % of control; (dose: 3.13 mg/kg/injection, schedule: Q01DX009 (ip), vehicle: saline with Tween-80) 119 % of control and 103 % of control; under setting [5], 118 % of control; under setting [6], 98 % of control and 106 % of control.

Regarding `Cc1ccccc1N(CC1CO1)CC1CO1` (configuration not stated), the T/C under setting [7] is 113 % of control; the T/C under setting [8] is 105 % of control; the T/C under setting [9] is 100 % of control; the T/C under setting [10] is 116 % of control; the T/C under setting [11] was 124 % of control.

On to `C=Cc1cc(OC)c2c(c1)c(=O)oc1c2cc(OC)c2c(O)ccc(C3OC(C)C(O)C(C)(O)C3O)c21` (configuration not stated), for which the T/C reads like this: (dose: 2.5 mg/kg/injection, schedule: Q01DX009 (ip), vehicle: DMSO) 120 % of control; (dose: 5.0 mg/kg/injection, schedule: Q01DX009 (ip), vehicle: DMSO) 124 % of control and 103 % of control; (dose: 20.0 mg/kg/injection, schedule: Q01DX009 (ip), vehicle: DMSO) 158 % of control; (dose: 40.0 mg/kg/injection, schedule: Q01DX009 (ip), vehicle: DMSO) 169 % of control and 196 % of control; (dose: 80.0 mg/kg/injection, schedule: Q01DX009 (ip), vehicle: DMSO) 207 % of control.

Take `Nc1ncn(C2OC(CO)C(O)C2O)c(=O)n1` (configuration not stated): the T/C runs as follows: (dose: 0.37 mg/kg/injection, schedule: Q01DX009 (ip), vehicle: saline) 106 % of control; (dose: 0.75 mg/kg/injection, schedule: Q01DX009 (ip), vehicle: saline) 111 % of control; under setting [12], 112 % of control; under setting [13], 114 % of control; (dose: 6.25 mg/kg/injection, schedule: Q01DX009 (ip), vehicle: saline) 105 % of control; under setting [14], 112 % of control. The T/C is, setting by setting: under setting [7], 112 % of control; under setting [8], 117 % of control and 119 % of control; under setting [9], 116 % of control and 117 % of control (2×); under setting [11], 153 % of control.

On to `CCOC(=O)C1(c2ccccc2)C(=O)Oc2ccccc21` (configuration not stated), for which the T/C is, setting by setting: under setting [6], 99 % of control and 100 % of control; under setting [15], 101 % of control and 102 % of control; under setting [16], 95 % of control and 105 % of control; under setting [17], 93 % of control and 95 % of control; under setting [18], 93 % of control and 100 % of control; under setting [19], 91 % of control.

In the case of `O=C(NC1CCCCC1)OCc1c(COC(=O)NC2CCCCC2)c(-c2ccc(Cl)c(Cl)c2)n2c1CCC2`, the T/C is 190 % of control under setting [6]; 162 % of control and 222 % of control under setting [15]; 199 % of control and 235 % of control under setting [16]; 203 % of control and 316 % of control under setting [17]; 181 % of control and 214 % of control under setting [18]; 112 % of control under setting [19].

Regarding `[N-]=[N+]=[N-]`, the T/C was 101 % of control under setting [12]; 90 % of control (dose: 3.0 mg/kg/injection, schedule: Q01DX009 (ip), vehicle: saline); 103 % of control under setting [13]; 108 % of control under setting [14].

Regarding `COC(=O)C1OC(OC2=C(c3ccc(OC)cc3)C(=O)C(OC3OC(C(=O)OC)C(OC(C)=O)C(OC(C)=O)C3OC(C)=O)=C(c3ccc(OC)cc3)C2=O)C(OC(C)=O)C(OC(C)=O)C1OC(C)=O` (configuration not stated), the T/C reads like this: (dose: 0.78 mg/kg/injection, schedule: Q01DX009 (ip), vehicle: Klucel (hydroxypropylcellulose) (HPC)) 109 % of control; (dose: 1.56 mg/kg/injection, schedule: Q01DX009 (ip), vehicle: Klucel (hydroxypropylcellulose) (HPC)) 109 % of control; under setting [1], 99 % of control; under setting [2], 102 % of control; under setting [3], 93 % of control.

Regarding `CC(C)C(NC(=O)C(Cc1cnc[nH]1)NC(=O)OCc1ccccc1)C(=O)O` (stereo not drawn) (Cbz-His-Val-OH; configuration not given here), the T/C was 94 % of control under setting [20], 102 % of control under setting [21] and 102 % of control under setting [22].

Turning to `NC(Cc1ccc(O)cc1)C(=O)O` (configuration not stated), the T/C under setting [6] is 102 % of control; the T/C under setting [15] was 113 % of control; the T/C (dose: 50.0 mg/kg/injection, schedule: Q01DX009 (ip), vehicle: Klucel (hydroxypropylcellulose) (HPC)) was 120 % of control; the T/C under setting [16] is 113 % of control; the T/C under setting [20] is 99 % of control; the T/C under setting [17] is 103 % of control. Also, the T/C is, setting by setting: under setting [21], 109 % of control; under setting [18], 98 % of control; under setting [22], 96 % of control; under setting [19], 103 % of control.

In the case of `CCCCCCCCCCC(OC(C)=O)C1CCC(C2CCC(C(O)CCCCCCCCCCCCC3C=C(C)OC3=O)O2)O1` (configuration not stated), the T/C by setting is: (dose: 0.25 mg/kg/injection, schedule: Q01DX009 (ip), vehicle: water) 97 % of control; (dose: 0.5 mg/kg/injection, schedule: Q01DX009 (ip), vehicle: water) 95 % of control; (dose: 1.0 mg/kg/injection, schedule: Q01DX009 (ip), vehicle: water) 93 % of control; (dose: 2.0 mg/kg/injection, schedule: Q01DX009 (ip), vehicle: water) 100 % of control; (dose: 4.0 mg/kg/injection, schedule: Q01DX009 (ip), vehicle: water) 100 % of control.

For the compound `CC1(C)N=C(N)N=C(N)N1c1cccc(CCCCc2cccc(N)c2)c1`, the T/C is 103 % of control under setting [2], 108 % of control under setting [3] and 114 % of control under setting [4].

`CCC(CC)COC(=O)c1ccccc1C(=O)OCC(CC)CC`: the T/C (dose: 3.12 mg/kg/injection, schedule: Q01DX009 (ip), vehicle: saline with Tween-80) is 98 % of control; the T/C under setting [5] was 97 % of control and 106 % of control; the T/C under setting [6] was 110 % of control and 90 % of control and 107 % of control; the T/C under setting [15] was 91 % of control and 96 % of control and 103 % of control; the T/C under setting [16] was 89 % of control and 96 % of control and 97 % of control; the T/C under setting [17] was 93 % of control and 97 % of control. The T/C reads like this: under setting [18], 106 % of control; under setting [19], 104 % of control.

Regarding `CC1=CCC[C@@H]2C1(C)CCC(C)[C@@]2(C)CC1=CC(=O)C=CC1=O` (some centres not stated), the T/C runs as follows: (dose: 0.75 mg/kg/injection, schedule: Q01DX009 (ip), vehicle: Klucel (hydroxypropylcellulose) (HPC)) 93 % of control; (dose: 1.25 mg/kg/injection, schedule: Q01DX009 (ip), vehicle: Klucel (hydroxypropylcellulose) (HPC)) 95 % of control.

Take `CN1C2CCC1C(Br)C(=O)C2` (configuration not stated): the T/C was 105 % of control under setting [8], 95 % of control under setting [9], 93 % of control under setting [10] and 93 % of control under setting [11].

The values above are taken from PubChem BioAssay AID200 (DTP/NCI, 2004).
